Results as given in patent US20010046996A1, “Use of a compound for preparing a drug” (priority 2000, published 2001).

Experiments:
Assay type in all cases: in vivo
[1] = test system: rabbit; test: Acute toxicity, cutaneous, rabbit
Protocol: (§1) The tested substance(B-220), was administered daily with 6 mg/animal, a dose that can be increased since the margin to toxic effects is wide and most likely further reduce the symptoms. It is to be noted that the acute toxicity of the tested substance used according to the present invention is low, which is exemplified with the following: […]

[2] = test system: mice; test: Chronic toxicity on mice; details: tested up to 270 days
[3] = test system: Lewis rats; test: EAE (experimental autoimmune encephalomyelitis) rat model for MS, clinical score; details: for delay of onset / recovery starts earlier: FIG. 2, versus control
[4] = test system: rat; test: Acute toxicity, rat
Protocol: as §1

## Cc1cc2nc3c4ccccc4n(CCN(C)C)c3nc2cc1C [B-220]
[1]
  NOEL (No Observable Effect Level): 200 mg/kg bw
[2]
  chronic toxicity: has not induced toxicity
[3]; FIG. 1, B-220 daily 6 mg/animal, Interferon-beta daily 3×10^5 U/animal, versus negative control
  reduction of the CNS symptoms (clinical score): 2/3
[3]; 6 mg/animal
  delay of onset: ~2 days
  recovery starts earlier: ~2 days
[3]; 12 mg/animal
  delay of onset: ~4 days
  recovery starts earlier: ~3 days
[4]; intravenous
  LD50: > 100 mg/kg bw
  NOEL (No Observable Effect Level): 12.5 mg/kg bw
[4]; oral
  LD50: > 800 mg/kg bw
